{"source": "paper PMC3625062", "about": "(MedChemComm, 2012)", "key": {"[1]": {"biological_target": "PDE10A (Homo sapiens, UniProt Q9Y233)", "sequence (Q9Y233 whole entry)": "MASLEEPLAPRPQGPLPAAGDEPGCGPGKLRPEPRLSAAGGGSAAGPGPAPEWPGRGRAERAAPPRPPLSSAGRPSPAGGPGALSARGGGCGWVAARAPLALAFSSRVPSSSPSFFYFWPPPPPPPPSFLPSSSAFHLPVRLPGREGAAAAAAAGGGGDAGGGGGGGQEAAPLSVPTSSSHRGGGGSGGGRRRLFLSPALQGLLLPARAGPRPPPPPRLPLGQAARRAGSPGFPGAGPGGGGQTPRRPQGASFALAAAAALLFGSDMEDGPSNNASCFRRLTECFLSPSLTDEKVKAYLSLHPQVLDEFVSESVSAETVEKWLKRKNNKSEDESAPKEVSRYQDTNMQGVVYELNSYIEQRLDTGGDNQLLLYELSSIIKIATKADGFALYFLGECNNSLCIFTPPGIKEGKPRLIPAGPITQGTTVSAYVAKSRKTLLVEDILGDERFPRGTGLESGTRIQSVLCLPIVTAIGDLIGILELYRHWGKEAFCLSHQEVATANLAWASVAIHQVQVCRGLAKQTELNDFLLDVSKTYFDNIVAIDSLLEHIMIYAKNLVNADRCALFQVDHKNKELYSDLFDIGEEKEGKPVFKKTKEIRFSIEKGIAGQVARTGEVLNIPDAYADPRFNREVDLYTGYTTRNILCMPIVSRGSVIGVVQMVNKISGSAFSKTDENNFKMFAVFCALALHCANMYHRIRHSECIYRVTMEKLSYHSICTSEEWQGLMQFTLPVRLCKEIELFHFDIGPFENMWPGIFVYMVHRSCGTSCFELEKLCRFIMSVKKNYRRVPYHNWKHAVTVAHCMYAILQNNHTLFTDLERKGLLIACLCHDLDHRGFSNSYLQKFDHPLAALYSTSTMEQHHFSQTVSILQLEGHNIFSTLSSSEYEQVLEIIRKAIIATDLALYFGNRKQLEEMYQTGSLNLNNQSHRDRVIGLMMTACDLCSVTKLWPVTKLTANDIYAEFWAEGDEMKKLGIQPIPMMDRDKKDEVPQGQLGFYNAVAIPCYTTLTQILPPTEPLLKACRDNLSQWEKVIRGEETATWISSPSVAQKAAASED", "experiment": "PDE10A inhibition, [3H]cAMP hydrolysis scintillation proximity assay", "format": "biochemical"}, "[2]": {"test_system": "R6/2 mice", "details": "behavioural symptoms such as rotarod performance improved; cited from earlier work"}}}
{"compound": "COc1cc(CSc2ccc(-c3nn(C)cc3-c3ccncc3)cc2)nc2ccccc12", "note": "[Compound 10g]", "values": [{"measurement": "fold less potent for PDE10A than 10b", "setting": "[1]; IC50 versus the corresponding O-atom bridged analogue 10b", "result": 600, "unit": "fold"}]}
{"compound": "COc1cccc2ccc(COc3ccc(-c4c(-c5ccncc5)cnn4C)cc3)nc12", "note": "[Compound 11f]", "values": [{"measurement": "fold higher PDE10A IC50 value than 11e", "setting": "[1]; IC50 of 8-methoxy 11f versus 7-methoxy 11e", "result": 2, "unit": "fold"}]}
{"compound": "FC(F)(F)Cn1cc(-c2ccncc2)c(-c2ccc(OCc3ccc4ccccc4n3)cc2)n1", "note": "[TP-10, 2-[4-[pyridin-4-yl-1-(2,2,2-trifluoroethyl)-1H-pyrazol-3-yl]-phenoxymethyl]-quinoline]", "values": [{"measurement": "neuropathology and symptoms in R6/2 mice", "setting": "[2]", "result": "ameliorated"}]}
